Laboratory results published in patent US20220348590A1, “CYCLOOXYGENASE-2 INHIBITORS AND USES THEREOF” (The Board Institute, Inc., priority 2019, published 2022).
Like-named read-outs stand apart in the source and are kept apart here.

Biological target: T1, human recombinant COX2 (hCOX2) (UniProt P35354)
T1 sequence (P35354 1-604): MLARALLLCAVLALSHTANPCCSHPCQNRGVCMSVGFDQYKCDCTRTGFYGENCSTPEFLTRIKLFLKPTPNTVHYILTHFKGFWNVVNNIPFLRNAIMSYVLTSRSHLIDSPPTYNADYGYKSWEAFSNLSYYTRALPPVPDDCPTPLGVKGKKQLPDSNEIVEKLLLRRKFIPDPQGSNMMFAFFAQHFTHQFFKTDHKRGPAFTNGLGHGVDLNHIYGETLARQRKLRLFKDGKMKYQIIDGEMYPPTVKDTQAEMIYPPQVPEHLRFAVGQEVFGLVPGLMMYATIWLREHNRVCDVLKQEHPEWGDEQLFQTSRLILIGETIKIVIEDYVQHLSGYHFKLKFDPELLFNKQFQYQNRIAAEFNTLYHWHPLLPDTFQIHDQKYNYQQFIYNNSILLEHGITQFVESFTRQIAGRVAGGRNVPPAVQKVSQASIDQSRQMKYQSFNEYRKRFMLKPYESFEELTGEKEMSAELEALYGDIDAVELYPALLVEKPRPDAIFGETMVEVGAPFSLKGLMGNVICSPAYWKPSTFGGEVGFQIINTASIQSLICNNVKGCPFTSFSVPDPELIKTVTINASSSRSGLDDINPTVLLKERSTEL
Assay: LCMS-based COX2 enzymatic inhibition assay (PGE2 quantification)
Type: biochemical
Design: COX2 2 minutes pge2/pge2d4 area ratio Avg; other: 2 minutes; readout pge2/pge2d4 area ratio; average; COX2 2 minutes pge2/pge2d4 area ratio Avg; LLE; average LLE; COX2 2 minutes pge2 area (counts) Avg; readout pge2 area (counts); other: 2 min; "ovine COX2 (oCOX2), human recombinant COX2 (hCOX2)"
Settings: for COX2 2 minutes pge2/pge2d4 area ratio Avg. LLE / COX2 2 minutes pge2 area (counts) Avg. LLE / COX2 10 minutes pge2 area (counts) Avg. LLE: average LLE; for IC50: average
Summary of the method: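 PGE2 formed from arachidonic acid (final 5 μM, 2 min) was measured by LC-MS-MS against DMSO controls. Enzyme (oCOX-1 0.1 μg or hCOX2 0.2 μg) with hematin/epinephrine cofactors at pH 8.0 was given 10 min at 37 °C with compound first. Twelve-point curves run three times gave IC50.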

[1] = 2 minutes, readout pge2/pge2d4 area ratio
[2] = 2 minutes, readout pge2/pge2d4 area ratio, read-out: COX2 2 minutes pge2/pge2d4 area ratio Avg. IC50
[3] = 2 minutes, readout pge2 area (counts)
[4] = 2 minutes, readout pge2 area (counts), read-out: COX2 2 minutes pge2 area (counts) Avg. IC50
[5] = read-out: COX2 2 minutes pge2/pge2d4 area ratio Avg. IC50 (microM), 2 minutes, readout pge2/pge2d4 area ratio
[6] = 10 minutes, readout pge2 area (counts)
[7] = 10 minutes, readout pge2 area (counts), read-out: COX2 10 minutes pge2 area (counts) Avg. IC50

SMILES	COX2 2 minutes pge2/pge2d4 area ratio Avg. LLE [1]	IC50 [2] [µM]	COX2 2 minutes pge2 area (counts) Avg. LLE [3]	IC50 [4] [µM]	COX2 10 minutes pge2 area (counts) Avg. LLE [6]	IC50 [7] [µM]	IC50 [5] [µM]
CS(=O)(=O)c1ccc(-c2cccc(NCc3cocn3)n2)cc1 [Compound 254]	3.075	3.93	–	–	–	–	–
CS(=O)(=O)c1ccc(-c2cncc(OCc3ccc(F)cc3)n2)cc1 [Compound 294]	–	–	2.694	–	–	–	5.2
CS(=O)(=O)c1ccc(-c2cccc(/C=C/c3ccoc3)n2)cc1 [Compound 247]	1.819	3.36	1.724	–	–	–	–
Cn1ccc(CNc2cncc(-c3ccc(S(C)(=O)=O)cc3)n2)n1 [Compound 245]	4.632	3.16	4.621	3.33	–	–	–
CC(C)CN(C)c1cncc(-c2ccc(S(C)(=O)=O)cc2)n1 [Compound 243]	3.642	3.12	3.739	2.31	–	–	–
CS(=O)(=O)c1ccc(-c2ccnc(NCc3ccoc3)c2)cc1 [Compound 290]	–	–	–	–	–	–	5.2
CS(=O)(=O)c1ccc(-c2cccc(C3CC3c3ccoc3)n2)cc1 (single isomer, unassigned) [Compound 177, 2-[2-(furan-3-yl)cyclopropyl]-6-(4-methanesulfonylphenyl)pyridine]	3.065	0.534	2.982	0.635	–	–	–
CSc1ccc(-c2cccc(NCc3ccco3)n2)cc1 [Compound 282]	1.004	–	1.004	–	–	–	5.2
COc1ncc(NCc2cocn2)nc1-c1ccc(S(C)(=O)=O)cc1 [Compound 291]	3.954	–	3.954	–	–	–	5.2
CS(=O)(=O)c1ccc(-c2cncc(SCc3cocn3)n2)cc1 [Compound 258]	3.44	4.1	3.462	3.9	–	–	–
CS(=O)(=O)c1ccc(-c2cc3nn(Cc4cccs4)cc3cn2)cc1 [Compound 325]	–	–	–	–	–	–	5.2
CS(=O)(=O)c1ccc(-c2cncc(N3Cc4ccccc4C3)n2)cc1 [Compound 313]	–	–	–	–	–	–	5.2
CS(=O)(=O)c1ccc(-c2cnnc(OCc3cccs3)c2)cc1 [Compound 321]	–	–	–	–	–	–	5.2
CS(=O)(=O)c1ccc(-c2cncc(N3CCCCC3)n2)cc1 [Compound 262]	3.643	4.57	3.693	4.04	3.59	5.13	–
CS(=O)(=O)c1ccc(-c2nc3cnn(Cc4cccs4)c3[nH]2)cc1 [Compound 256]	–	4.04	–	4.56	–	–	–

Further lines, with some results ahead:

COX2 2 minutes pge2/pge2d4 area ratio Avg. LLE [1]	IC50 [2] [µM]	COX2 2 minutes pge2 area (counts) Avg. LLE [3]	IC50 [4] [µM]	COX2 10 minutes pge2 area (counts) Avg. LLE [6]	IC50 [7] [µM]	SMILES	IC50 [5] [µM]
5.1378	0.196	5.206	0.161	–	–	CS(=O)(=O)c1ccc(-c2cccc(NCc3cnoc3)n2)cc1 [Compound 136]	–
6.121	0.144	6.077	0.169	–	–	CS(=O)(=O)c1ccc(-c2cncc(NCc3cccs3)n2)nc1 [Compound 127]	–
2.212	0.127	2.325	0.095	–	–	CS(=O)(=O)c1ccc(-n2ccc3ccc(OCc4cccs4)nc32)cc1 [Compound 122]	–
5.411	0.0984	5.451	0.0934	–	–	CS(=O)(=O)c1ccc(-c2cncc(NCc3ccoc3)n2)cc1 [Compound 110]	–
4.528	2.12	4.5985	1.8	–	–	COc1ncc(NCc2ccccn2)nc1-c1ccc(S(C)(=O)=O)cc1 [Compound 228]	–
4.61	0.442	4.149	0.931	–	–	CS(=O)(=O)c1ccc(-c2cncc(OC[C@@H]3CCCS3)n2)cc1 (single isomer, unassigned) [Compound 170]	–
3.956	0.359	3.972	0.349	–	–	COc1ccc(-c2ccc(S(C)(=O)=O)nc2)nc1NCc1cccs1 [Compound 158]	–
2.8514	1.41	2.964	1.17	3.939	0.112	CS(=O)(=O)c1ccc(-c2cnc3ncn(Cc4cccs4)c3n2)cc1 [Compound 210]	–
–	0.139	–	0.123	–	–	Cc1ccc(COc2cncc(-c3ccc(S(C)(=O)=O)cc3)n2)s1 [Compound 124]	–
–	0.629	–	0.635	–	–	CS(=O)(=O)c1ccc(-n2ccc3ccc(/C(=N\O)c4cccs4)nc32)cc1 [Compound 187]	–
5.065	0.157	5.129	0.131	–	–	CS(=O)(=O)c1ccc(-c2cncc(SCc3ccccn3)n2)cc1 [Compound 131]	–
4.286	0.546	4.322	0.387	–	–	COc1cc(S(C)(=O)=O)ccc1-c1cncc(NCc2cccs2)n1 [Compound 179]	–
2.767	0.656	2.661	0.839	–	–	COCc1ccc(-c2ccc(S(C)(=O)=O)cc2)nc1NCc1cccs1 [Compound 189]	–
4.384	0.0982	4.487	0.0793	5.297	0.0132	C[C@H](Nc1cncc(-c2ccc(S(C)(=O)=O)cc2)n1)c1cccs1 [Compound 109]	–
4.275	0.652	4.373	0.546	–	–	Cn1ccc(CNc2cccc(-c3ccc(S(C)(=O)=O)cc3)n2)n1 [Compound 188]	–
4.887	1.69	4.735	2.69	4.836	1.96	CS(=O)(=O)c1ccc(-c2cncc(NCc3ccc(F)cn3)n2)cc1 [Compound 221]	–
3.528	0.711	3.498	0.774	–	–	CS(=O)(=O)c1ccc(-c2cccc(C(=O)C(=O)c3cccs3)n2)cc1 [Compound 190]	–
3.784	1.67	3.69	2.09	–	–	CS(=O)(=O)c1ccc(-c2cc(NCc3cccs3)cnn2)cc1 [Compound 220]	–
5.815	1.05	5.757	1.19	–	–	CS(=O)(=O)c1ccc(-c2cncc(NCc3ccno3)n2)cc1 [Compound 202]	–
5.442	0.0671	4.51	0.942	–	–	CS(=O)(=O)c1ccc(-c2nc(NCc3cccs3)cnc2N)cc1 [Compound 90]	–
4.855	0.006	4.615	0.0141	–	–	CS(=O)(=O)c1ccc(-c2cncc(OCc3ccc(Cl)s3)n2)cc1 [Compound 4]	–
